Test results: the Kinase Knowledgebase extract (Sharma et al. 2016)

Legend:
Assay in all cases: Enzyme Assay
PIK3CG (human) = PIK3CG (human) (UniProt P48736)
PIK3CD (Human) = PIK3CD (Human) (UniProt O00329)
PIK3CB (Human) = PIK3CB (Human) (UniProt P42338)
Chain of PIK3CB (Human) (P42338 whole entry, looked up): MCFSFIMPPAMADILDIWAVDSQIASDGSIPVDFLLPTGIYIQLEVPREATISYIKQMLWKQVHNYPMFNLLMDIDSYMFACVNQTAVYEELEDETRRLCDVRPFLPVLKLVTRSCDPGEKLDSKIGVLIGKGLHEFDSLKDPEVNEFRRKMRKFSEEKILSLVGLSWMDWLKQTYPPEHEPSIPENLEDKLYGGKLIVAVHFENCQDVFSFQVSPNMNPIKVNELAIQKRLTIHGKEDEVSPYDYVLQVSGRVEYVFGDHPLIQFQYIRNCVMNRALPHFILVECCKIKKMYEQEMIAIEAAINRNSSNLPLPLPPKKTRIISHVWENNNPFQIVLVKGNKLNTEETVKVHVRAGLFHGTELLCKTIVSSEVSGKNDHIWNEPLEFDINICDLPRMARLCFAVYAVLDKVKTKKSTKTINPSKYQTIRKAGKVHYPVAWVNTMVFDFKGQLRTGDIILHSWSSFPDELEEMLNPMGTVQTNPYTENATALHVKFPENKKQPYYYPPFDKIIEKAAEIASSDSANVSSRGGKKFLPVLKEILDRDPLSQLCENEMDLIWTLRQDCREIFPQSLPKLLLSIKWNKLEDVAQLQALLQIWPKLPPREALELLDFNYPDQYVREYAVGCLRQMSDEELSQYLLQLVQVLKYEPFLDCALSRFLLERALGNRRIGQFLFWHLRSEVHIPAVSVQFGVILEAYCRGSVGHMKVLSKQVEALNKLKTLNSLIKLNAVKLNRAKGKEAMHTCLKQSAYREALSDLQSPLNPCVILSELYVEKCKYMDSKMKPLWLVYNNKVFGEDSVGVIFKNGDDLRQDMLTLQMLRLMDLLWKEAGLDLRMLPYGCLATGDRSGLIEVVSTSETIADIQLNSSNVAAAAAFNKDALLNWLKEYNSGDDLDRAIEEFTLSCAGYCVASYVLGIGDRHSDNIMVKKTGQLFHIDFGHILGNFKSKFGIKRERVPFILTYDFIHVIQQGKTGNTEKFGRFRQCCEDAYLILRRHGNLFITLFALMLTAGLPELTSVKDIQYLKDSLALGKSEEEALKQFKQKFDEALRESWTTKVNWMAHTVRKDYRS

Chain of PIK3CD (Human) (O00329 whole entry, looked up): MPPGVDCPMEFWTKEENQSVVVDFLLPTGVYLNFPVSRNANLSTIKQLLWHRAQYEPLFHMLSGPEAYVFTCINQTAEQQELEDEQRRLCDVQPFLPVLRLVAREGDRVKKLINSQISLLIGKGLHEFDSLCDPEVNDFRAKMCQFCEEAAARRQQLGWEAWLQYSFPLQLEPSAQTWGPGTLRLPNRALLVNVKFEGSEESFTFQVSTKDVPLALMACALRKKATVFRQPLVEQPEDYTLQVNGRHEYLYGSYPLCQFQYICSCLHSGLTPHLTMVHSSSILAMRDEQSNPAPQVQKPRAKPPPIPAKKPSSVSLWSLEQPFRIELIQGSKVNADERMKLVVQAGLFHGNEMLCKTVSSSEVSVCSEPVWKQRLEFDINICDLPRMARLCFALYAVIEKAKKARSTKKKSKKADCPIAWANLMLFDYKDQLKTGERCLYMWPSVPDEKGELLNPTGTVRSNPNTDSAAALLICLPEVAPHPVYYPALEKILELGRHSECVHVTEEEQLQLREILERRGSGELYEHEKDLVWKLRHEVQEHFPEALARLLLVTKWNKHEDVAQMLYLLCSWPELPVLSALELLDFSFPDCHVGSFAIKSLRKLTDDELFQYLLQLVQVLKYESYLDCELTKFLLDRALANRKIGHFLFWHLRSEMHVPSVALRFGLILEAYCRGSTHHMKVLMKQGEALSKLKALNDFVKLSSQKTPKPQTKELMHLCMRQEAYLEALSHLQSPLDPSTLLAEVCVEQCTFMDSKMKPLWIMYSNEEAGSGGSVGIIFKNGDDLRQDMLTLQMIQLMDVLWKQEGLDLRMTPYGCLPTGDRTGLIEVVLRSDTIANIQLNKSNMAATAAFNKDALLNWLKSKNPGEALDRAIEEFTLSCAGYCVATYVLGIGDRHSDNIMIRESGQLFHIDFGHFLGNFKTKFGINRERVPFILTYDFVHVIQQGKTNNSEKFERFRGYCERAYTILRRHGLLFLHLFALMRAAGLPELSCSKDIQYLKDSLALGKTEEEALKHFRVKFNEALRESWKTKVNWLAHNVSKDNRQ
Chain of PIK3CG (human) (P48736 whole entry, looked up): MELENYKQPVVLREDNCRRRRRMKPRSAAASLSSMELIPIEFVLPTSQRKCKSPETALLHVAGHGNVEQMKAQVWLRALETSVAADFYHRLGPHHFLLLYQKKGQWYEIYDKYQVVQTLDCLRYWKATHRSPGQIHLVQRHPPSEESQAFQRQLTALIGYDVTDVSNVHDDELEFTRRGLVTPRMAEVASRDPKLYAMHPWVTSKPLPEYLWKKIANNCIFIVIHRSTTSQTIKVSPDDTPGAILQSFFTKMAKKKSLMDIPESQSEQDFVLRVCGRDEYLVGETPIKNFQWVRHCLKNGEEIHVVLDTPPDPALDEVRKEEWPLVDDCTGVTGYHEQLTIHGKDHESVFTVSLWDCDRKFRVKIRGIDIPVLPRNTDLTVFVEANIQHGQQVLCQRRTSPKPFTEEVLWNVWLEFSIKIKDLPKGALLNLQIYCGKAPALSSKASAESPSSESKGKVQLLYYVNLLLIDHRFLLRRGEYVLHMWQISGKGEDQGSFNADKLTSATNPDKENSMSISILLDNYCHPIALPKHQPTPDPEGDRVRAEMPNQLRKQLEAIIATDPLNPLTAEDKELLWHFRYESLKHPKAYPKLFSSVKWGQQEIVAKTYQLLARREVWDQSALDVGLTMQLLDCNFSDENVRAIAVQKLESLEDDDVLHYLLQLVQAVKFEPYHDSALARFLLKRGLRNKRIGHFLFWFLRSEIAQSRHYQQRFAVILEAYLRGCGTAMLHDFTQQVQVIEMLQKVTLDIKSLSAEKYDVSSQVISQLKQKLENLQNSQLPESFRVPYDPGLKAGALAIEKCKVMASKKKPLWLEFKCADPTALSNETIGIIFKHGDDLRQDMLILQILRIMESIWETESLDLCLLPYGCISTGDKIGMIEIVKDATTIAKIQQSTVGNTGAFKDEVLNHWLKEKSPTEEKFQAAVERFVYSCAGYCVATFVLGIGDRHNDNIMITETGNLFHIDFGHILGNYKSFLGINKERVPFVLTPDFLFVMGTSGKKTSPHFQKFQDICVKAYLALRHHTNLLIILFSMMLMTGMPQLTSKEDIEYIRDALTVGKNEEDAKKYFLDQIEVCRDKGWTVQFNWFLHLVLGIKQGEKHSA

Row | SMILES | IC50 (PIK3CG (human)) [nM] | IC50 (PIK3CD (Human)) [nM] | IC50 (PIK3CB (Human)) [nM]
1 | N#Cc1c(N)ncnc1N1CCC[C@H]1c1nc2cccc(Cl)c2c(=O)n1-c1cccc(NC(=O)Nc2ccccn2)c1 | 7400 | 49 | 420
2 | C[C@H](Nc1ncnc(N)c1C#N)c1nc2cccc(Cl)c2c(=O)n1-c1cccc(NC(=O)Nc2cccnc2C(F)(F)F)c1 | 3900 | 11 | 23
3 | N#Cc1c(N)nc(N)nc1N1CCC[C@H]1c1nc2c(Cl)ccc(Cl)c2c(=O)n1-c1cccc(C(N)=O)c1 | 1400 | 2 | 51

Second part, the compound after the results:

Row | IC50 (PIK3CG (human)) [nM] | IC50 (PIK3CD (Human)) [nM] | IC50 (PIK3CB (Human)) [nM] | SMILES
4 | 7800 | 38 | 97 | COCCNC(=O)Nc1cccc(-n2c([C@@H]3CCCN3c3ncnc(N)c3C#N)nc3cccc(Cl)c3c2=O)c1
5 | > 10000 |  |  | CCNC(=O)Nc1ccc(Cl)c(-n2c([C@H](C)Nc3ncnc(N)c3C#N)nc3cccc(Cl)c3c2=O)c1
